Here are results for eleven molecules from ChEMBL document CHEMBL1201862, “PubChem BioAssay data set” (2004).

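Growth conditions: 96-well plates. Treatment: test compound, 48 hours, 5 concentrations. Analysis: linear interpolation between bracketing concentrations; unreached endpoints set to highest concentration. GI50: concentration for 50% inhibition of growth.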 Active and inactive are the calls of the source. Cut-off read from the data, not from the text of the source: active = GI50 up to about 1.1 µM and inactive = higher. Where a SMILES comes first, the peptide text is derived from it. The star is where a group is joined. Boc = CC(C)(C)OC(=O)*

Test systems include HCT-116; 786-0; A549; SK-MEL-28; SN12C; T47D; OVCAR-8; SK-OV-3; U-251; MCF7; SF-268; MDA-MB-231; HCT-15; ACHN; PC-3; OVCAR-5; IGROV-1; CCRF-CEM; NCI-H460; HL-60.
What all share (test): DTP human tumour cell line panel, 48 h

As to `COc1cc(C2S/C(=C/c3ccccc3)C(=O)N2c2cccc([N+](=O)[O-])c2)cc(OC)c1OC` (centres undefined), the GI50 is 36.2 µM (inactive) in the test with HCT-116; 51.4 µM (inactive) in the test on 786-0; > 100 µM (inactive) in the test on A549; > 100 µM (inactive) in the test on SK-MEL-28; > 100 µM (inactive) in the test on SN12C; 0.156 µM (active) with T47D. Also, the GI50 was > 100 µM (inactive) with OVCAR-8; > 100 µM (inactive) in the test on SK-OV-3; 27.5 µM (inactive) with U-251; 47.8 µM (inactive) in the test with MCF7; 76.2 µM (inactive) in the test on SF-268; 51.8 µM (inactive) in the test with MDA-MB-231. The GI50 was 71.9 µM in the test with HCT-15, > 100 µM (inactive) with ACHN, > 100 µM (inactive) in the test with PC-3 and > 100 µM (inactive) in the test with OVCAR-5.

Turning to `CC(=O)Oc1c(OC(C)C)cc(=O)n2ccsc12`, the GI50 in the test with HCT-116 is > 100 µM (inactive); in the test on 786-0, > 100 µM (inactive); with A549, > 100 µM (inactive); in the test with IGROV-1, 92.7 µM (inactive); in the test with SK-MEL-28, > 100 µM (inactive); with SN12C, > 100 µM (inactive). For the same molecule, the GI50 with OVCAR-8 was > 100 µM (inactive); with CCRF-CEM it was 16.1 µM (inactive); in the test on SK-OV-3 it was > 100 µM (inactive); with U-251, > 100 µM (inactive); with MCF7, 52.6 µM (inactive); with NCI-H460, > 100 µM (inactive). Also, the GI50 in the test with SF-268 was > 100 µM (inactive); in the test on MDA-MB-231, > 100 µM (inactive); with HCT-15 it was more than 100 µM; with ACHN it was > 100 µM (inactive); with PC-3, > 100 µM (inactive); in the test on OVCAR-5 it was > 100 µM (inactive). Besides, the GI50 with HL-60 was 18.5 µM (inactive).

`COC(=O)c1c(O)ccc2c1c1c(n2Cc2cc(OC)cc(OC)c2)C(=O)c2ccccc2C1`: the GI50 with HCT-116 is 8.28 µM (inactive); with 786-0, 92 µM (inactive); with A549 it was 36.2 µM (inactive); with IGROV-1 it was 30.3 µM (inactive); in the test on SK-MEL-28 it was 16.1 µM (inactive); with SN12C, 29.5 µM (inactive). The GI50 was 43.3 µM (inactive) in the test with OVCAR-8; 18.2 µM (inactive) with CCRF-CEM; 29 µM (inactive) in the test with SK-OV-3; 47.8 µM (inactive) in the test with U-251; 23.7 µM (inactive) in the test on MCF7; 31 µM (inactive) in the test on NCI-H460. The GI50 with SF-268 is 31.1 µM (inactive); with MDA-MB-231, 24 µM (inactive); in the test on HCT-15 it was 32.1 µM; in the test on PC-3 it was 16.9 µM (inactive); in the test on OVCAR-5, 18.4 µM (inactive); in the test on HL-60, > 100 µM (inactive).

On to `O=S(=O)(SC1=NCCN1)c1cccc2ccccc12`, for which the GI50 in the test with HCT-116 was 30.3 µM (inactive); in the test on 786-0, 25.4 µM (inactive); in the test with A549, 22.8 µM (inactive); in the test on IGROV-1 it was 21.7 µM (inactive); with SK-MEL-28, 47 µM (inactive); with SN12C, 23 µM (inactive). Further, the GI50 with OVCAR-8 is 28.8 µM (inactive); in the test with CCRF-CEM it was 21.8 µM (inactive); in the test with SK-OV-3, 19.5 µM (inactive); in the test on U-251, 35.1 µM (inactive); in the test on MCF7, 30.9 µM (inactive); in the test with NCI-H460, 22.7 µM (inactive). In addition, the GI50 was 22.1 µM (inactive) in the test on MDA-MB-231; 35.3 µM in the test on HCT-15; 27 µM (inactive) in the test on ACHN; 29.8 µM (inactive) in the test with PC-3; 22.1 µM (inactive) in the test on OVCAR-5; > 10 µM (inactive) in the test on HL-60.

Consider `CCN(CC)C(=S)SNCCc1ccc(S(N)(=O)=O)cc1`, for which the GI50 with HCT-116 was 13.3 µM (inactive); in the test on 786-0, 14.7 µM (inactive); in the test with A549, 11.9 µM (inactive); in the test on SK-MEL-28 it was 9.23 µM (inactive); in the test with SN12C, 14.2 µM (inactive); with T47D it was 18.1 µM (inactive). For the same molecule, the GI50 in the test with OVCAR-8 was 12.6 µM (inactive); in the test with CCRF-CEM it was 0.169 µM (active); in the test on SK-OV-3, 25.4 µM (inactive); in the test with U-251, 15.5 µM (inactive); with NCI-H460, 22.4 µM (inactive); with SF-268, 15.6 µM (inactive). For the same molecule, the GI50 is 14.7 µM (inactive) in the test with MDA-MB-231; 16.8 µM with HCT-15; 17.9 µM (inactive) with ACHN; 13.9 µM (inactive) with PC-3; 15.6 µM (inactive) in the test with OVCAR-5.

As for `CC(NC(=O)C1CCCN1C(=O)CNC(=O)OC(C)(C)C)C(=O)O` (stereo not drawn) (Boc-Gly-Pro-Ala-OH; configuration not given here), the GI50 with 786-0, with A549, in the test with IGROV-1, in the test with SK-MEL-28, in the test on SN12C and with T47D was > 100 µM (inactive) each time. For the same molecule, the GI50 with OVCAR-8, in the test with SK-OV-3, with U-251, in the test on MCF7, with NCI-H460 and with SF-268 was > 100 µM (inactive) in each case. The GI50 in the test with MDA-MB-231 was > 100 µM (inactive); with HCT-15, more than 100 µM; in the test with ACHN it was > 100 µM (inactive); with PC-3 it was > 100 µM (inactive); in the test with OVCAR-5 it was > 100 µM (inactive).

Regarding `CN(C)CCNc1ccc(CO)c2sc3ccc(O)cc3c(=O)c12`, the GI50 is 1.12 µM (inactive) in the test on HCT-116; 1.13 µM (inactive) in the test on 786-0; 0.286 µM (active) in the test on A549; 3.42 µM (inactive) in the test with IGROV-1; 7.8 µM (inactive) in the test on SK-MEL-28; 1.23 µM (inactive) with SN12C. The GI50 in the test on T47D is 1.91 µM (inactive); with OVCAR-8, 1.97 µM (inactive); in the test on CCRF-CEM, 0.171 µM (active); in the test on SK-OV-3 it was 1.76 µM (inactive); with U-251 it was 0.783 µM (active); in the test with NCI-H460 it was 0.0259 µM (active). For the same molecule, the GI50 with SF-268 was 1.55 µM (inactive); in the test with MDA-MB-231 it was 1.85 µM (inactive); in the test with HCT-15 it was 2.31 µM; in the test on ACHN it was 0.351 µM (active); with PC-3, 1.32 µM (inactive); with OVCAR-5 it was 5.26 µM (inactive). In addition, the GI50 in the test with HL-60 was 0.258 µM (active).

Turning to `CC(C)(C)c1cc(CC2C(=O)c3ccccc3C2=O)cc(C(C)(C)C)c1O`, the GI50 is 2.24 µM (inactive) in the test with HCT-116; 3.9 µM (inactive) in the test with 786-0; 8.59 µM (inactive) with A549; 5.45 µM (inactive) in the test on IGROV-1; 4.11 µM (inactive) in the test on SN12C; 3.05 µM (inactive) in the test on OVCAR-8. Moreover, the GI50 was 4.04 µM (inactive) in the test with CCRF-CEM; 2.44 µM (inactive) with SK-OV-3; 3.87 µM (inactive) in the test on U-251; 3.66 µM (inactive) in the test with MCF7; 4.48 µM (inactive) with NCI-H460; 3.44 µM (inactive) in the test with SF-268. For the same molecule, the GI50 in the test on MDA-MB-231 was 2.59 µM (inactive); in the test on HCT-15 it was 2.9 µM; in the test with ACHN, 9.51 µM (inactive); in the test on PC-3, 2.7 µM (inactive); in the test on OVCAR-5 it was 11.7 µM (inactive); in the test on HL-60, 2.54 µM (inactive).

Regarding `Oc1ccc(N=C2CCC(=C(c3ccccc3)c3ccc(Nc4ccc(O)cc4)cc3)CC2)cc1`, the GI50 with HCT-116 is 39.4 µM (inactive); with 786-0, 78.7 µM (inactive); in the test on A549, 83.9 µM (inactive); in the test on SK-MEL-28, > 100 µM (inactive); in the test with SN12C, 54.6 µM (inactive); with OVCAR-8 it was 48.5 µM (inactive). In addition, the GI50 is 88.9 µM (inactive) in the test with CCRF-CEM; 62.1 µM (inactive) with SK-OV-3; 47.3 µM (inactive) in the test on U-251; > 100 µM (inactive) in the test on MCF7; 85.7 µM (inactive) in the test on NCI-H460; 50.9 µM (inactive) in the test with SF-268. In addition, the GI50 is 75.5 µM (inactive) in the test on MDA-MB-231; more than 100 µM in the test on HCT-15; 67.1 µM (inactive) in the test with ACHN; 96.2 µM (inactive) in the test on PC-3; > 100 µM (inactive) in the test on OVCAR-5.

In the case of `COc1ccc(C2CC(C)=Nc3c(O)nc(S)nc3N2)cc1` (centres undefined), the GI50 in the test with HCT-116 was 16.5 µM (inactive); in the test on 786-0 it was 17.1 µM (inactive); in the test with A549 it was 16.9 µM (inactive); in the test on IGROV-1 it was 18.8 µM (inactive); in the test on SK-MEL-28, 27 µM (inactive); with SN12C, 19.4 µM (inactive). Besides, the GI50 is 20 µM (inactive) in the test with OVCAR-8; 24.2 µM (inactive) in the test on CCRF-CEM; 18.1 µM (inactive) with SK-OV-3; 17.3 µM (inactive) in the test with U-251; 16.6 µM (inactive) with NCI-H460; 37.7 µM (inactive) with SF-268. For the same molecule, the GI50 in the test with HCT-15 was 16.3 µM; with ACHN, 18.7 µM (inactive); in the test with OVCAR-5, 23.4 µM (inactive); with HL-60 it was 17.7 µM (inactive).

Take `Cc1ccc(-c2c(C#N)c(O)n(NS(=O)(=O)c3ccccc3)c(=O)c2C#N)cc1`: the GI50 in the test on HCT-116, in the test with 786-0, in the test with A549, in the test on IGROV-1, with SK-MEL-28 and in the test with SN12C was > 100 µM (inactive) in each case. For the same molecule, the GI50 in the test on OVCAR-8, with CCRF-CEM, in the test with SK-OV-3, with U-251, in the test with MCF7 and in the test with NCI-H460 was > 100 µM (inactive) each time. For the same molecule, the GI50 in the test with SF-268 is > 100 µM (inactive); in the test on MDA-MB-231 it was > 100 µM (inactive); in the test on HCT-15 it was more than 100 µM; with ACHN it was > 100 µM (inactive); with PC-3, > 100 µM (inactive); in the test on OVCAR-5, > 100 µM (inactive). Besides, the GI50 in the test on HL-60 is > 100 µM (inactive).
